In ChEMBL document CHEMBL5291721, “A preclinical secondary pharmacology resource illuminates target-adverse drug reaction associations of marketed drugs” (Nat Commun, 2023):

What was measured:
[1] = target: T1, 5-hydroxytryptamine receptor 1A (Homo sapiens, UniProt P08908)
T1 sequence (P08908 whole entry): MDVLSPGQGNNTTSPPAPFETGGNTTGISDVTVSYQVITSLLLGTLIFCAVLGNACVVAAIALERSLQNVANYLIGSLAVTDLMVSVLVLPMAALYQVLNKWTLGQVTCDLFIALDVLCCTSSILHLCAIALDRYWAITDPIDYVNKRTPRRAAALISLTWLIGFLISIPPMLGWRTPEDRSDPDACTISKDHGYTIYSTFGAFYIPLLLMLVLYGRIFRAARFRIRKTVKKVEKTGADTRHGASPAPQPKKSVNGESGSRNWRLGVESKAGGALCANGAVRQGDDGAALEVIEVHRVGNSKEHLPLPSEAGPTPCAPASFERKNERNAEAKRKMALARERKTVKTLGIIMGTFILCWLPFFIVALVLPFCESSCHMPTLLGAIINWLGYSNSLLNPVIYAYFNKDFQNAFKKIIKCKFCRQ

[2] = target: T2, Amine oxidase [flavin-containing] A (Homo sapiens, UniProt P21397); assay type: functional
T2 sequence (P21397 whole entry): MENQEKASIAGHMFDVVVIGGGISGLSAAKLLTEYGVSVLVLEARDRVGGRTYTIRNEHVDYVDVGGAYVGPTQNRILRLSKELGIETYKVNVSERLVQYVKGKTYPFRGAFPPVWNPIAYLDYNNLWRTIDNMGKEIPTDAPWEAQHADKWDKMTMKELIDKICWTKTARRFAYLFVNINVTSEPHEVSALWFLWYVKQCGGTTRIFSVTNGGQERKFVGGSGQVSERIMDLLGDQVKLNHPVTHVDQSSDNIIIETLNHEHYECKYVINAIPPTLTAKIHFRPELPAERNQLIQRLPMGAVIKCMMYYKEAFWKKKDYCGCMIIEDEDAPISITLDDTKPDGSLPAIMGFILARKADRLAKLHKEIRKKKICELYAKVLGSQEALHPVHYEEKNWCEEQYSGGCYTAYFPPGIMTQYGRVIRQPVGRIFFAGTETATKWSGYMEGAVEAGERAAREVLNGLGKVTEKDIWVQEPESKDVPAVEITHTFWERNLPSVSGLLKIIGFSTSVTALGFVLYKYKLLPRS

[3] = target: T3, Sodium-dependent serotonin transporter (Homo sapiens, UniProt P31645)
[4] = target: T4, Muscarinic acetylcholine receptor M2 (Homo sapiens, UniProt P08172); assay type: functional, cell-based
T4 sequence (P08172 whole entry): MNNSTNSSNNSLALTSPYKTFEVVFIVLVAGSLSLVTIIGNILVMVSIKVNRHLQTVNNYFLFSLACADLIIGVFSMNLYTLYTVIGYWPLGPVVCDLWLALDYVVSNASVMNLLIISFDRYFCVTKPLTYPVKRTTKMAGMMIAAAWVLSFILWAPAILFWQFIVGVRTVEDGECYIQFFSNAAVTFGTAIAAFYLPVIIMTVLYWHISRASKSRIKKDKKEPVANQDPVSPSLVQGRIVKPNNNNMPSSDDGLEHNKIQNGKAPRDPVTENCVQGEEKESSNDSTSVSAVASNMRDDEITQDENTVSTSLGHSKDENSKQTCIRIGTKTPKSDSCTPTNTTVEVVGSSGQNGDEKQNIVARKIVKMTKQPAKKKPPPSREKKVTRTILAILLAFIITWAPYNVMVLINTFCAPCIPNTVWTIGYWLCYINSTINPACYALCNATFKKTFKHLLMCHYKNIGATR

[5] = target: Vasopressin V2 receptor (Homo sapiens, UniProt P30518)
[6] = target: T3, Sodium-dependent serotonin transporter; remark: listed apart in the source
[7] = target: T5, Muscarinic acetylcholine receptor M1 (Homo sapiens, UniProt P11229); assay type: functional
T5 sequence (P11229 whole entry): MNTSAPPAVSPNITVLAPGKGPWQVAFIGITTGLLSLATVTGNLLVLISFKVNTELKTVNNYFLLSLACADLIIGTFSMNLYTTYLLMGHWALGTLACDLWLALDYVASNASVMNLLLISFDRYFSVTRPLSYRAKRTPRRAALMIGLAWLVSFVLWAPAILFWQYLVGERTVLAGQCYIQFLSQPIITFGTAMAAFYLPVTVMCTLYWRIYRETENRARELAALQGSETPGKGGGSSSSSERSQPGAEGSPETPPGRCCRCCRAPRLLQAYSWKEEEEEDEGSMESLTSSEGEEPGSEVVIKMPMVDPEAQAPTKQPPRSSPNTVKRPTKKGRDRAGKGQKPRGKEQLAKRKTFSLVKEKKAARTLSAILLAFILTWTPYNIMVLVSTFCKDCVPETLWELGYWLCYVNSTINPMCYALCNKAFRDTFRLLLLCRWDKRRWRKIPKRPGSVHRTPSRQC

[8] = target: Kappa-type opioid receptor (Homo sapiens, UniProt P41145)
[9] = target: T4, Muscarinic acetylcholine receptor M2; assay type: functional, cell-based; remark: listed apart in the source
[10] = target: T1, 5-hydroxytryptamine receptor 1A; assay type: functional, cell-based
[11] = target: T6, Alpha-1A adrenergic receptor (Homo sapiens, UniProt P35348); assay type: functional, cell-based
T6 sequence (P35348 whole entry): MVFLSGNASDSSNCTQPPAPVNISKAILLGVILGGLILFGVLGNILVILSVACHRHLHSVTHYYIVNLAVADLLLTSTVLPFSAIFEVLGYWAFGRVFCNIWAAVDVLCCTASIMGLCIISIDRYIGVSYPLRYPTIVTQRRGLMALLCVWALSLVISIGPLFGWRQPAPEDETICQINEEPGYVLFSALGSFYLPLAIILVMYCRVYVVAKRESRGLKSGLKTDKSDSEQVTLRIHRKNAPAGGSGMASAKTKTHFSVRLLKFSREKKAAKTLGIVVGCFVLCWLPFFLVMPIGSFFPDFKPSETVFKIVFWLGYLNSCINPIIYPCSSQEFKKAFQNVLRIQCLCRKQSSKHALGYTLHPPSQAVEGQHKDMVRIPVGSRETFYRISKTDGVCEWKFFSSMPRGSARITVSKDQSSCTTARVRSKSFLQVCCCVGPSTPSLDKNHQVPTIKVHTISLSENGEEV
Further: assay procedure not described here.

Chain of Vasopressin V2 receptor (P30518 whole entry): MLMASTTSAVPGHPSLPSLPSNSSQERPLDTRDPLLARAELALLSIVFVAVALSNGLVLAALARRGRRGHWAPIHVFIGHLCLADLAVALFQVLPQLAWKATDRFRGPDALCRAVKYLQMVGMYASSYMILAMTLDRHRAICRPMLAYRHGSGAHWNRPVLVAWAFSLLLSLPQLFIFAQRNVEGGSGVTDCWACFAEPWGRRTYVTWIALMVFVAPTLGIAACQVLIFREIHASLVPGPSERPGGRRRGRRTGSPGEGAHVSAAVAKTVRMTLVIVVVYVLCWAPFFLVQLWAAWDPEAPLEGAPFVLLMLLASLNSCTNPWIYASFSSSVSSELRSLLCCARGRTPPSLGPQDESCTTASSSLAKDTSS
T3 sequence (P31645 whole entry): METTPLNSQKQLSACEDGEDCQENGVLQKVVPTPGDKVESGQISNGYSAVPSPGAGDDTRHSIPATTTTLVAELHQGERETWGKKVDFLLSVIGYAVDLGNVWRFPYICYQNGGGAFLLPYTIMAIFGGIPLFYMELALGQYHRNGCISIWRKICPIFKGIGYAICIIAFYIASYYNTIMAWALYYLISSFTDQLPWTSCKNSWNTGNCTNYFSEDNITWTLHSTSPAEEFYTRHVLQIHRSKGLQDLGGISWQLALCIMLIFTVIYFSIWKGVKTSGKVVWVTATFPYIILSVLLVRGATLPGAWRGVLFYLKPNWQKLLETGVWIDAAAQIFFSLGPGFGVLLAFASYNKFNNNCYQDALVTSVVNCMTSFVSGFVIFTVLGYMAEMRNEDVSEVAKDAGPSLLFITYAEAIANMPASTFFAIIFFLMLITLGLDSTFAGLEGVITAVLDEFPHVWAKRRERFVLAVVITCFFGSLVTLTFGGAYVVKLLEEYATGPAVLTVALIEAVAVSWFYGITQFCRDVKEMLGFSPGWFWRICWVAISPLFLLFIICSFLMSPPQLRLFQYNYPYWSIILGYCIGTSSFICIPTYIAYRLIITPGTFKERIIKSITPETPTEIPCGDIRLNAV
Chain of Kappa-type opioid receptor (P41145 whole entry): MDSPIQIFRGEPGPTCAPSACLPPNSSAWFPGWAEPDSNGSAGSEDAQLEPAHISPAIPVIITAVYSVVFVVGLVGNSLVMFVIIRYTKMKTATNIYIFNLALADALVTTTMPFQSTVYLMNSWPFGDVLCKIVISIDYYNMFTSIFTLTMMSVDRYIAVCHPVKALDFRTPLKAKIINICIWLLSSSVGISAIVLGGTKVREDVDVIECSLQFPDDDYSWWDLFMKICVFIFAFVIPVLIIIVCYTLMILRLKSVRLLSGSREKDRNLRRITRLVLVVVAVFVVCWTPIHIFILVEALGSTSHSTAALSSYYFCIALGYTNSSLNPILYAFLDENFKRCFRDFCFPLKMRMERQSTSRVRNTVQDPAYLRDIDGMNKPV

SMILES | AC50 [4] [µM] | AC50 [5] [µM] | AC50 [6] [µM] | AC50 [7] [µM] | AC50 [8] [µM] | AC50 [9] [µM] | AC50 [10] [µM] | AC50 [11] [µM] | AC50 [1] [µM] | AC50 [2] [µM] | AC50 [3] [µM]
C[C@@H](CN1CC(=O)NC(=O)C1)N1CC(=O)NC(=O)C1 [DEXRAZOXANE] | – | – | – | – | – | – | – | – | > 30 | > 30 | > 30
Cc1ccc(C(C)C)c(O)c1 [THYMOL] | – | – | – | – | – | – | – | – | > 30 | > 30 | > 30
OC[C@H]1NC[C@H](O)[C@@H](O)[C@H]1O | – | – | – | – | – | – | – | – | > 30 | > 30 | > 30
CN1CCN(C(c2ccccc2)c2ccc(Cl)cc2)CC1 (stereo not given) [CHLORCYCLIZINE] | – | – | – | – | – | – | – | – | 13.9 | > 30 | 15.4
CCOCC(O)COc1ccc(NC(=O)CC[S+](C)C)cc1 (stereo not given) | > 30 | – | > 30 | > 30 | – | > 30 | > 30 | > 30 | – | – | –
CCC[C@@]1(CCc2ccccc2)CC(O)=C([C@H](CC)c2cccc(NS(=O)(=O)c3ccc(C(F)(F)F)cn3)c2)C(=O)O1 | > 30 | – | > 30 | > 30 | – | 6.3 | > 30 | > 30 | – | – | –
c1cnc2cc3c(cc2n1)[C@@H]1CNC[C@H]3C1 [VARENICLINE] | > 30 | – | > 30 | > 30 | – | > 30 | > 30 | > 30 | – | – | –
Cn1cnc2c(F)c(Nc3ccc(Br)cc3F)c(C(=O)NOCCO)cc21 [BINIMETINIB] | > 30 | – | > 30 | > 30 | – | > 30 | > 30 | > 30 | – | – | –
C[C@@H](O)[C@H]1C(=O)N2C(C(=O)O)=C(SCCN=CN)C[C@H]12 [IMIPENEM ANHYDROUS] | > 300 | – | > 300 | 260 | – | > 300 | > 300 | > 300 | – | – | –
CO[C@@H]1[C@@H](OC(N)=O)[C@@H](O)[C@H](Oc2ccc3c(O)c(NC(=O)c4ccc(O)c(CC=C(C)C)c4)c(=O)oc3c2C)OC1(C)C [NOVOBIOCIN] | > 30 | – | > 30 | > 30 | – | > 30 | > 30 | > 30 | – | – | –

More lines, main results first:

AC50 [4] [µM] | AC50 [5] [µM] | AC50 [6] [µM] | AC50 [7] [µM] | AC50 [8] [µM] | AC50 [9] [µM] | AC50 [10] [µM] | AC50 [11] [µM] | SMILES | AC50 [1] [µM] | AC50 [2] [µM] | AC50 [3] [µM]
> 30 | > 30 | > 30 | > 30 | 5.34 | > 30 | > 30 | > 30 | CCN(CC)CCn1c(=O)c(Cc2ccc(OC)cc2)nc2ccccc21 [CAROVERINE] | – | – | –
> 30 | > 30 | > 30 | > 30 | > 30 | > 30 | > 30 | > 30 | N[C@@H](Cc1cc(I)c(Oc2cc(I)c(O)c(I)c2)c(I)c1)C(=O)O [LEVOTHYROXINE] | – | – | –
> 10 | > 30 | > 30 | > 10 | > 10 | > 10 | > 10 | > 30 | C=CC1=C(C(=O)O)N2C(=O)[C@@H](NC(=O)/C(=N\O)c3csc(N)n3)[C@H]2SC1 | – | – | –
> 30 | – | > 30 | > 30 | – | > 30 | > 30 | > 30 | O=C(O)[C@H]1/C(=C/CO)O[C@@H]2CC(=O)N21 [CLAVULANIC ACID] | – | – | –
> 30 | – | > 30 | > 30 | – | > 30 | > 10 | > 30 | CC(C)(CO)c1cc2cc(NC(=O)C3(c4ccc5c(c4)OC(F)(F)O5)CC3)c(F)cc2n1C[C@@H](O)CO [TEZACAFTOR] | – | – | –
> 30 | > 30 | > 30 | > 10 | > 10 | > 30 | > 10 | > 30 | C[C@]12CCC(=O)C=C1CC[C@H]1[C@@H]3CC[C@](O)(C(=O)CO)[C@@]3(C)C[C@H](O)[C@@]12F [FLUDROCORTISONE] | – | – | –
> 30 | > 30 | 3 | > 30 | > 30 | 26 | > 30 | > 30 | CN(C)CCOC(c1ccc(Cl)cc1)c1ccccn1 (stereo not given) [CARBINOXAMINE] | – | – | –
> 30 | > 30 | > 30 | > 30 | > 30 | > 30 | > 30 | > 30 | C[C@H](Cn1cnc2c(N)ncnc21)OCP(=O)(O)O [TENOFOVIR ANHYDROUS] | – | – | –
> 30 | > 30 | 20 | 13 | 14 | > 30 | > 30 | > 30 | CC(C)/N=c1\cc2n(-c3ccc(Cl)cc3)c3ccccc3nc-2cc1Nc1ccc(Cl)cc1 [CLOFAZIMINE] | – | – | –
> 30 | – | > 30 | > 30 | – | > 30 | > 30 | > 30 | Nc1c2c(nc3ccccc13)CCCC2O (stereo not given) [VELNACRINE] | – | – | –
> 30 | – | > 30 | > 30 | – | > 30 | > 30 | > 30 | COc1cc2c(cc1OC)C1CC(=O)C(CC(C)C)CN1CC2 (stereo not given) [TETRABENAZINE] | – | – | –
> 30 | > 30 | > 30 | > 30 | 8.6 | > 30 | > 30 | – | CC(=O)SCC(Cc1ccccc1)C(=O)NCC(=O)OCc1ccccc1 (stereo not given) [RACECADOTRIL] | – | – | –
> 10 | > 30 | > 30 | > 10 | > 30 | > 10 | 0.02 | – | CCOc1ccccc1OCCN[C@H](C)Cc1ccc(OC)c(S(N)(=O)=O)c1 [TAMSULOSIN] | – | – | –
> 10 | > 30 | > 10 | > 10 | 8.65 | > 10 | > 10 | > 30 | OCCOCCN1CCN(C(c2ccccc2)c2ccc(Cl)cc2)CC1 (stereo not given) [HYDROXYZINE] | – | – | –
